This test has as its target T1, human RNR (histidine tagged human M1 and human M2 proteins) (Homo sapiens, UniProt P23921).
T1 construct: made in house; host or cells: Escherichia coli
T1 sequence (P23921 1-792): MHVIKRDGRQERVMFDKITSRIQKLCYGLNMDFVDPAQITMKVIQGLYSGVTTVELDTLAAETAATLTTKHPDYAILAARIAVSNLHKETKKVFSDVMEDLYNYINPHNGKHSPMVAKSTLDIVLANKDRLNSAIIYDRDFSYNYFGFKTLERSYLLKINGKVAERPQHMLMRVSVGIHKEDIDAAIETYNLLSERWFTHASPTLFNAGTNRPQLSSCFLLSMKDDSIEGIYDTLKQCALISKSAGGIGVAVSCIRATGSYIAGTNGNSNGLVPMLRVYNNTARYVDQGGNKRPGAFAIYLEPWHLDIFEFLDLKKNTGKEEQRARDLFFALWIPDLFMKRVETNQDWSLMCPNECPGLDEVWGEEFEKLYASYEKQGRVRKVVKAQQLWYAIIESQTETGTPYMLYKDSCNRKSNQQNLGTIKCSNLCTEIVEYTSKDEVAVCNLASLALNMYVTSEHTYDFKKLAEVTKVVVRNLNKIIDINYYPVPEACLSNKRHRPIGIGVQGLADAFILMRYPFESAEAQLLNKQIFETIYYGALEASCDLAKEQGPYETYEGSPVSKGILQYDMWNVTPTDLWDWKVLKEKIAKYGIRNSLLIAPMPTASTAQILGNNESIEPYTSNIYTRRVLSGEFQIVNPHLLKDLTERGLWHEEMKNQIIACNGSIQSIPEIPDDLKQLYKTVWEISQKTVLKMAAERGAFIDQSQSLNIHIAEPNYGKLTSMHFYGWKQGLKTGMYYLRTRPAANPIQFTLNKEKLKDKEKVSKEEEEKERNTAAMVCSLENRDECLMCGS
In words: Human RNR inhibition effect (dCDP formation from CDP). As to conditions: 10 μM CDP, 37° C. for 30 minutes, read-out: RNR inhibitory activity IC50. It counts as biochemical. The procedure, abridged: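 His-tagged human M1 (isoform 1) and N-terminal 59-aa-truncated M2 (isoform 2), E. coli-expressed, Ni-purified, preincubated 20 min with compound (1% DMSO). Reaction with 10 μM CDP, 2 mM ATP, 0.24 mM NADPH, 6 mM DTT, 4 mM Mg acetate, 100 mM KCl, 50 mM HEPES pH 7.2, 30 min at 37° C. dCDP formed quantified by reverse-phase HPLC after heat stop.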

The text below walks through data of patent publication US20200405697A1, “Antitumor Agent” (Taiho Pharmaceutical Co., Ltd, priority 2017, published 2020).

With `Cc1ccc(F)c([C@@H](C)[C@H](NS(=O)(=O)c2cc(C(=O)O)c(Cl)cc2C(N)=O)c2n[nH]c(=O)o2)c1C` [Example 38, 4-carbamoyl-2-chloro-5-(N-((1S,2R)-2-(6-fluoro-2,3-dimethylphenyl)-1-(5-oxo-4,5-dihydro-1,3,4-oxadiazol-2-yl)propyl)sulfamoyl)benzoic acid], the IC50 worked out at 190 nM.

Consider `COc1cc(N)ccc1S(=O)(=O)N[C@H](c1n[nH]c(=O)o1)[C@H](C)c1cccc2c1CCC2` [Example 270, 4-amino-N-((1S,2R)-2-(2,3-dihydro-1H-inden-4-yl)-1-(5-oxo-4,5-dihydro-1,3,4-oxadiazol-2-yl)propyl)-2-methoxybenzenesulfonamide], for which the IC50 was determined as 730 nM.

Turning to `COc1cc(Cl)ccc1S(=O)(=O)N[C@H](c1n[nH]c(=O)o1)[C@H](C)c1c(F)ccc(-c2cccnc2)c1C` [Example 300, 4-chloro-N-((1S,2R)-2-(6-fluoro-2-methyl-3-(pyridin-3-yl)phenyl)-1-(5-oxo-4,5-dihydro-1,3,4-oxadiazol-2-yl)propyl)-2-methoxybenzenesulfonamide], the IC50 was determined as 340 nM.

For `Cc1ccc(F)c([C@@H](C)[C@H](NS(=O)(=O)c2ncc(Br)cc2C(=O)O)c2n[nH]c(=O)o2)c1C` [Example 214, 5-bromo-2-(N-((1S,2R)-2-(6-fluoro-2,3-dimethylphenyl)-1-(5-oxo-4,5-dihydro-1,3,4-oxadiazol-2-yl)propyl)sulfamoyl)nicotinic acid], the IC50 is 990 nM.

With `C[C@H](c1cccc2c1CCC2)[C@H](NS(=O)(=O)c1ccc(Br)c(C(C)(C)O)c1)c1n[nH]c(=O)o1` [Example 188, 4-bromo-N-((1S,2R)-2-(2,3-dihydro-1H-inden-4-yl)-1-(5-oxo-4,5-dihydro-1,3,4-oxadiazol-2-yl)propyl)-3-(2-hydroxypropan-2-yl)benzenesulfonamide], the IC50 turned out to be 640 nM.

Turning to `COc1cc(Cl)ccc1S(=O)(=O)N[C@H](c1n[nH]c(=O)o1)[C@H](C)c1c(F)ccc(-c2c[nH]nc2C)c1C` [Example 308, 4-chloro-N-((1S,2R)-2-(6-fluoro-2-methyl-3-(3-methyl-1H-pyrazol-4-yl)phenyl)-1-(5-oxo-4,5-dihydro-1,3,4-oxadiazol-2-yl)propyl)-2-methoxybenzenesulfonamide], the half-maximal inhibitory concentration (IC50) worked out at 180 nM.

Regarding `Cc1c(Cl)ccc(F)c1[C@@H](C)[C@H](NS(=O)(=O)c1ccc(Cl)c2c1OCCC2O)c1n[nH]c(=O)o1` (single isomer, unassigned) [Example 238A], the 50% inhibitory concentration (IC50) is 110 nM.

Regarding `COc1cc(Cl)ccc1S(=O)(=O)N[C@H](c1noc(=O)[nH]1)[C@H](C)c1c(F)ccc(C)c1C` [Example 349, 4-chloro-N-((1S,2R)-2-(6-fluoro-2,3-dimethylphenyl)-1-(5-oxo-4,5-dihydro-1,2,4-oxadiazol-3-yl)propyl)-2-methoxybenzenesulfonamide], the IC50 was found to be 250 nM.

Turning to `Cc1ccc(F)c([C@@H](C)[C@H](NS(=O)(=O)c2ccc(Cl)cc2C(=O)N(C)C)c2n[nH]c(=O)o2)c1C` [Example 246, 5-chloro-2-(N-((1S,2R)-2-(6-fluoro-2,3-dimethylphenyl)-1-(5-oxo-4,5-dihydro-1,3,4-oxadiazol-2-yl)propyl)sulfamoyl)-N,N-dimethylbenzamide], the half-inhibitory concentration (IC50) worked out at 500 nM.

Consider `COc1c(S(=O)(=O)N[C@H](c2n[nH]c(=O)o2)[C@H](C)c2c(F)ccc(C)c2C)ncc(Cl)c1C(C)O` (stereo partly drawn) [Example 216, 5-chloro-N-((1S,2R)-2-(6-fluoro-2,3-dimethylphenyl)-1-(5-oxo-4,5-dihydro-1,3,4-oxadiazol-2-yl)propyl)-4-(1-hydroxyethyl)-3-methoxypyridine-2-sulfonamide], for which the half-inhibitory concentration (IC50) is 200 nM.

Regarding `COc1cc(Cl)ccc1S(=O)(=O)N[C@H](c1n[nH]c(=O)o1)[C@H](C)c1cccc2cccc(C)c12` [Example 71, 4-chloro-2-methoxy-N-((1S,2R)-2-(8-methylnaphthalen-1-yl)-1-(5-oxo-4,5-dihydro-1,3,4-oxadiazol-2-yl)propyl)benzenesulfonamide], the IC50 is 240 nM.

By IC50 is commonly meant the concentration that gives 50% inhibition.
